Legend:
Type in all cases: physicochemical
[1] = Evaluation of UV absorption performance (2): absorbance spectra in chloroform; conditions: 100 μM, 10-mm quartz cell
Description: Compounds 11 to 28 were diluted with 100 μM of chloroform and placed in a 10-mm quartz cell, and the absorbance spectra were measured using an ultraviolet-visible spectrophotometer (V-550, manufactured by JASCO Corporation)(FIGS. 11,12,14 to 29).
The absorption peak (maximum absorption wavelength: max) and absorbance in the wavelength range of 350 to 390 nm were read from the absorption spectra of Compounds 11 to 28, and a molar extinction coefficient (maximum molar extinction coefficient: εmax) of the peak was obtained by the following formula (Table 7): Molar extinction coefficient:εmax(L/(mol·cm))=A:Absorbance/[c:Mol concentration(mol/L)×1:Cell optical length(cm)] [Equation 3]
In addition, from the absorption spectra of Compounds 11 to 28, assuming that an intersection of a long-wavelength side absorption spectrum in the absorption peak at 350 to 390 nm and a baseline (a line where the slope of the absorption spectrum at […] is zero) is set as a peak end (for example: FIG. 1), the absolute value of the slope of the absorption peak on the long-wavelength side in the wavelength region at 350 to 390 nm was obtained by the following equation (Table 8): |Slope of absorption peak on long wavelength side in wavelength region of 350 to 390n|=|(Absorbance at peak end−Absorbance at absorption peak in wavelength region of 350 to 390 nm)/(Absorption wavelength at peak end−Wave length at absorption peak in wavelength region of 350 to 390 nm)| [Equation 4]

[2] = Evaluation of UV absorption performance (1): absorbance spectra in chloroform; conditions: 100 μM, 10-mm quartz cell
Description: Compounds 1 to 12 were diluted with 100 μM of chloroform, placed in a 10-mm quartz cell, and the absorbance spectra were measured using an ultraviolet-visible spectrophotometer (V-550, manufactured by JASCO Corporation)(FIGS. 1 to 12).
The absorption peak (maximum absorption wavelength: λmax) and absorbance in the wavelength range of 350 to 390 nm were read from the absorption spectra of Compounds 1 to 12, and the molar extinction coefficient of the peak (maximum molar extinction coefficient: εmax) was obtained by the following equation (able 1). Molar extinction coefficient:εmax(L/(mol·cm))=A:Absorbance/[c:Mol concentration(mol/L)×1:Cell optical length(cm)] [Equation 1]
In addition, from the absorption spectra of Compounds 1 to 12, assuming that an intersection of a long-wavelength side absorption spectrum in the absorption peak at 350 to 390 nm and a baseline (a line where the slope of the absorption spectrum at 380 to 500 nm is zero) is set as a […] (for example: FIG. 1), the absolute value of the slope of the absorption peak on the long-wavelength side in the wavelength region at 350 to 390 nm was obtained by the following equation: |Slope of absorption peak on long wavelength side in wavelength region of 350 to 390 nm|=|(Absorbance at peak end−Absorbance at absorption peak in wavelength region of 350 to 390 nm)/(Absorption wavelength at peak end−Wave length at absorption peak in wavelength region of 350 to 390 nm)| [Equation 2]

[3] = Maximum solubility in various monomers; conditions: room temperature (20 to 30° C.), 4 hours

| Compound | Absorbance at absoprtion peak in wavelength region of 350 to 390 nm [1] | Absorbance at peak end [1] | Absorption wavelength at peak end [1] [nm] | Molar extinction coefficient at peak (maximum molar extinction coefficient: εmax) [1] [L/mol/cm] | Wave length at absorption peak in wavelength region of 350 to 390 nm (maximum absorption wavelength: λmax) [1] [nm] | Absorbance at absorption peak in wavelength region of 350 to 390 nm [2] | Absorbance at peak end [2] | Absorption wavelength at peak end [2] [nm] | Molar extinction coefficient at peak (maximum molar extinction coefficient: εmax) [2] [L/mol/cm] | Wave length at absorption peak in wavelength region of 350 to 390 nm (maximum absorption wavelength: λmax) [2] [nm] | Maximum solubility ([3]; Dimethylacrylamide) [wt %] | Maximum solubility ([3]; Hexadiene) [wt %] | Maximum solubility ([3]; Methyl (meth)acrylate) [wt %] | Maximum solubility ([3]; Styrene) [wt %] | Maximum solubility ([3]; Vinyl acetate) [wt %] |
| --- | --- | --- | --- | --- | --- | --- | --- | --- | --- | --- | --- | --- | --- | --- | --- |
| CCCCCCCCCCCCCCCCCCNC(=O)OCCCCCCSc1ccc2nn(-c3cc(C)cc(C(C)(C)C)c3O)nc2c1 [Compound 20] | 2.20 | 0.00489 | 423 | 22000 | 368 |  |  |  |  |  |  |  |  |  |  |
| Cc1cc(-n2nc3ccc(Sc4ccc(NC(=O)c5ccc6ccccc6c5)cc4)cc3n2)c(O)c(C(C)(C)C)c1 [Compound 24] | 2.36 | 0.02 | 424 | 23600 | 368 |  |  |  |  |  |  |  |  |  |  |
| COc1ccc(NC(=O)Nc2ccc(Sc3ccc4nn(-c5cc(C)cc(C(C)(C)C)c5O)nc4c3)cc2)cc1 [Compound 28] | 2.26 | 0.01853 | 423 | 22600 | 370 |  |  |  |  |  |  |  |  |  |  |
| Cc1cc(-n2nc3ccc(SCCOC(=O)c4ccccc4)cc3n2)c(O)c(C(C)(C)C)c1 [Compound 14] | 2.21 | 0.02594 | 419 | 22100 | 365 |  |  |  |  |  |  |  |  |  |  |
| CCCCCCCCCCCCCCCCCC(=O)Nc1ccc(Sc2ccc3nn(-c4cc(C)cc(C(C)(C)C)c4O)nc3c2)cc1 [Compound 22] | 2.23 | 0.01382 | 424 | 22300 | 369 |  |  |  |  |  |  |  |  |  |  |
| Cc1cc(-n2nc3ccc(Sc4ccc(OC(=O)c5ccccc5)cc4)cc3n2)c(O)c(C(C)(C)C)c1 [Compound 19] | 2.29 | 0.02244 | 422 | 22900 | 366 |  |  |  |  |  |  |  |  |  |  |
| C=C(C)C(=O)Oc1ccc(Sc2ccc3nn(-c4cc(C)cc(C(C)(C)C)c4O)nc3c2)cc1 [Compound 5] |  |  |  |  |  | 2.29 | 0.01022 | 422 | 21800 | 367 | 15 | 5 | 15 | 25 | 13 |
| CC(=O)Oc1ccc(Sc2ccc3nn(-c4cc(C)cc(C(C)(C)C)c4O)nc3c2)cc1 [Compound 17] | 2.24 | 0.01899 | 422 | 22400 | 366 |  |  |  |  |  |  |  |  |  |  |
| Cc1cc(-n2nc3ccc(Sc4ccc(NC(=O)c5ccccc5)cc4)cc3n2)c(O)c(C(C)(C)C)c1 [Compound 23] | 2.34 | 0.01418 | 424 | 23400 | 369 |  |  |  |  |  |  |  |  |  |  |

Results, then the molecule that gave them:

| Absorbance at absoprtion peak in wavelength region of 350 to 390 nm [1] | Absorbance at peak end [1] | Absorption wavelength at peak end [1] [nm] | Molar extinction coefficient at peak (maximum molar extinction coefficient: εmax) [1] [L/mol/cm] | Wave length at absorption peak in wavelength region of 350 to 390 nm (maximum absorption wavelength: λmax) [1] [nm] | Absorbance at absorption peak in wavelength region of 350 to 390 nm [2] | Absorbance at peak end [2] | Absorption wavelength at peak end [2] [nm] | Molar extinction coefficient at peak (maximum molar extinction coefficient: εmax) [2] [L/mol/cm] | Wave length at absorption peak in wavelength region of 350 to 390 nm (maximum absorption wavelength: λmax) [2] [nm] | Maximum solubility ([3]; Dimethylacrylamide) [wt %] | Maximum solubility ([3]; Hexadiene) [wt %] | Maximum solubility ([3]; Methyl (meth)acrylate) [wt %] | Maximum solubility ([3]; Styrene) [wt %] | Maximum solubility ([3]; Vinyl acetate) [wt %] | Compound |
| --- | --- | --- | --- | --- | --- | --- | --- | --- | --- | --- | --- | --- | --- | --- | --- |
| 2.17 | 0.1501 | 419 | 21700 | 368 |  |  |  |  |  |  |  |  |  |  | CCCCCCCCCCCCCCCCCCNC(=O)Nc1ccc(Sc2ccc3nn(-c4cc(C)cc(C(C)(C)C)c4O)nc3c2)cc1 [Compound 26] |
| 2.22 | 0.01846 | 420 | 22200 | 367 |  |  |  |  |  |  |  |  |  |  | CCCCCCCCCCCCCCCCCC(=O)OCCCCCCSc1ccc2nn(-c3cc(C)cc(C(C)(C)C)c3O)nc2c1 [Compound 16] |
| 2.27 | 0.0174 | 424 | 22700 | 370 |  |  |  |  |  |  |  |  |  |  | CCNC(=O)Nc1ccc(Sc2ccc3nn(-c4cc(C)cc(C(C)(C)C)c4O)nc3c2)cc1 [Compound 25] |
| 2.22 | 0.0302 | 419 | 22200 | 365 |  |  |  |  |  |  |  |  |  |  | CC(=O)OCCSc1ccc2nn(-c3cc(C)cc(C(C)(C)C)c3O)nc2c1 [Compound 13] |
| 2.39 | 0.01868 | 425 | 23900 | 369 |  |  |  |  |  |  |  |  |  |  | Cc1cc(-n2nc3ccc(Sc4ccc(NC(=O)Nc5ccccc5)cc4)cc3n2)c(O)c(C(C)(C)C)c1 [Compound 27] |
|  |  |  |  |  | 2.27 | 0.01184 | 424 | 21600 | 369 | 15 | 10 | 20 | 25 | 15 | C=C(C)C(=O)OCCCCCCOc1ccc(Sc2ccc3nn(-c4cc(C)cc(C(C)(C)C)c4O)nc3c2)cc1 [Compound 6] |
| 2.22 | 0.02575 | 420 | 22200 | 366 |  |  |  |  |  |  |  |  |  |  | CCCCCCCCCCCCCCCCCC(=O)Oc1ccc(Sc2ccc3nn(-c4cc(C)cc(C(C)(C)C)c4O)nc3c2)cc1 [Compound 18] |
|  |  |  |  |  | 2.14 | 0.00702 | 422 | 21100 | 368 |  |  |  |  |  | CCCCCCCCCCCCC/C=C/C(=O)OCCCCCCSc1ccc2nn(-c3cc(C)cc(C(C)(C)C)c3O)nc2c1 [Compound 9] |
| 2.24 | 0.00955 | 424 | 22400 | 369 |  |  |  |  |  |  |  |  |  |  | CC(=O)Nc1ccc(Sc2ccc3nn(-c4cc(C)cc(C(C)(C)C)c4O)nc3c2)cc1 [Compound 21] |

Reference: patent US11795151B2, “Benzotriazole compound” (MIYOSHI OIL & FAT CO., LTD., priority 2017, dated 2023)
